Measurements as given in US20230157952A1, “METHOD FOR IMPROVING THE STABILITY OF A PHARMACEUTICAL COMPOSITION COMPRISING A HIGH PENETRATION DRUG, AND THE PHARMACEUTICAL COMPOSITION OBTAINED THEREFROM” (Techfields Inc., priority 2020, published 2023).
Non-standard residues stand in square brackets, D forms with d. *: point of attachment. Arg(NO2) = N=C(NCCC[C@H](N)C(=O)O)N[N+](=O)[O-]; OiPr = CC(C)O*

Columns and labels:
[1] = Stability of the pure HPDs (dry solid) at 25° C./RH 60%; format: physicochemical; settings: for Purity: pure HPD, 25° C./RH 60%
[2] = Effect of concentration on the stability of the solution (purity over time); settings: in water at 25° C.
[3] = Effect of pH value on the stability of the solution (purity); format: physicochemical; settings: for Purity(%) from day 0-28 / Purity(%) from day 0-14: 25° C.
[4] = Effect of temperature (and pH) on the stability of the solution (purity); format: physicochemical
[5] = pure HPD at 25° C./RH 60%, in % (unit assumed)
[6] = 5% solution with 1 equivalent sodium acetate in 25% ethanol, pH 4.49-4.51

## CCN(CC)CCOC(=O)[C@H](C)c1ccc2cc(OC)ccc2c1.Cl (racemic) [2-(diethylamino)ethyl (R,S)-2-(6-methoxy-2-naphthyl)propionate•HCl]
[1]; 3 month, listed as A-1-1
  Purity: 98.6 ± 0.1
[1]; 6 month, listed as A-1-1
  Purity: 98.8 ± 0.1
[1]; Day 0, listed as A-1-1
  Purity: 98.8 ± 0.2
[2]; 0.01 wt %
  Purity at Day 3: 79.6%
  Purity at Day 7: 73.4%
  Purity at Day 14: 68.7%
  Purity at Day 21: 64.5%
  Purity at Day 28: 61.4%
  Purity at hr 24: 91.7%
[2]; 0.1 wt %
  Purity at Day 7: 97.2%
  Purity at Day 14: 96.1%
  Purity at Day 21: 95.4%
  Purity at Day 28: 94.1%
[2]; 1 wt %
  Purity at Day 14: 97.4%
  Purity at Day 21: 96.9%
  Purity at Day 28: 96.4%
[2]; 3 wt %
  Purity at Day 21: 97.6%
  Purity at Day 28: 97.1%
[2]; 5 wt %
  Purity at Day 28: 97.5%
[2]; 8 wt %
  Purity at Day 21: 97.5%
  Purity at Day 28: 97.6%
[2]; 10 wt %
  Purity at Day 21: 97.4%
  Purity at Day 28: 97.6%
[2]; 15 wt %
  Purity at Day 21: 97.5%
  Purity at Day 28: 97.6%
[2]; 20 wt %
  Purity at Day 21: 97.4%
  Purity at Day 28: 97.6%
[2]
  Stability when the concentration is 0.1% or lower: not stable
[3]; day 28, pH 1.0, 7% solution in water
  Purity(%) from day 0-28: 68.9 ± 0.3%
[3]; day 28, pH 2.0, 7% solution in water
  Purity(%) from day 0-28: 80.9 ± 0.4%
[3]; day 28, pH 3.0, 7% solution in water
  Purity(%) from day 0-28: 90.3 ± 0.3%
[3]; day 28, pH 3.7, 7% solution in water
  Purity(%) from day 0-28: 97.2 ± 0.2%
[3]; day 28, pH 5.0, 7% solution in water
  Purity(%) from day 0-28: 96.3 ± 0.2%
[3]; day 28, pH 6.0, 7% solution in water
  Purity(%) from day 0-28: 89.9 ± 0.3%
[3]; day 28, pH 7.0, 7% solution in water
  Purity(%) from day 0-28: 65.8 ± 0.3%
[3]; day 28, pH 8.0, 7% solution in water
  Purity(%) from day 0-28: 45.8 ± 0.4%
[4]; 7% solution in water
  Stability of the solution at a temperature higher than 40° C. and a pH lower than 3 or greater than 6: not stable

## H-Val-Pro-Gly-Pro-Arg(NO2)—OCH(CH3)2•HCl (H-VPGP[Arg(NO2)]-OiPr; also: HCl salt)
[1]; [5]
  Purity at 3 month: 98.8 ± 0.2
  Purity at 6 month: 98.6 ± 0.2
  Purity at 9 month: 98.5 ± 0.2
  Purity at 12 month: 98.4 ± 0.3
  Purity at 18 month: 98.2 ± 0.3
  Purity at 24 month: 98.2 ± 0.2
  Purity at Day 0: 98.7 ± 0.2
[1]; room temperature (25° C./RH 60%)
  Stability of the pure powder: very stable
[3]; 5% solution in 25% ethanol at 25° C.
  pH at which the solution is stable: 3-6
[3]; 5% solution in 25% ethanol, pH 3-6
  Time the solution can be stored at room temperature: about 1 year
[4]; [6]
  Purity (%) at day 30 (60° C.): 32.4 ± 0.4%
  Purity (%) at day 90 (60° C.): 0%
  Purity (%) at day 180 (60° C.): 0%
  Purity (%) at day 360 (60° C.): 0%
  Purity(%) at day 0: 98.7 ± 0.2%
  Purity(%) at day 30 (5° C.): 98.5 ± 0.3%
  Purity(%) at day 30 (25° C.): 97.7 ± 0.2%
  Purity(%) at day 30 (40° C.): 71.6 ± 0.2%
  Purity(%) at day 90 (5° C.): 98.4 ± 0.3%
  Purity(%) at day 90 (25° C.): 97.0 ± 0.3%
  Purity(%) at day 90 (40° C.): 32.7 ± 0.3%
  Purity(%) at day 180 (5° C.): 97.8 ± 0.3%
  Purity(%) at day 180 (25° C.): 95.1 ± 0.3%
  Purity(%) at day 180 (40° C.): 12.2 ± 0.3%
  Purity(%) at day 360 (5° C.): 97.3 ± 0.3%
  Purity(%) at day 360 (25° C.): 92.2 ± 0.2%
  Purity(%) at day 360 (40° C.): 0%

## CCN(CC)CCOC(=O)c1ccccc1OC(C)=O.O=C(O)c1ccccc1 [A-2, 2-(diethylamino)ethyl acetylsalicylate•benzoic acid salt]
[1]; 12 month
  Purity: 97.9 ± 0.1
[1]; 18 month
  Purity: 97.6 ± 0.2
[1]; 24 month
  Purity: 97.1 ± 0.2
[3]; day 14, pH 1.0, 7% in water
  Purity(%) from day 0-14: 60.5 ± 0.3%
[3]; day 14, pH 2.0, 7% in water
  Purity(%) from day 0-14: 79.7 ± 0.4%
[3]; day 14, pH 3.0, 7% in water
  Purity(%) from day 0-14: 91.0 ± 0.2%
[3]; day 14, pH 3.7, 7% in water
  Purity(%) from day 0-14: 94.1 ± 0.2%
[3]; day 14, pH 4.0, 7% in water
  Purity(%) from day 0-14: 95.0 ± 0.3%
[3]; day 14, pH 4.3, 7% in water
  Purity(%) from day 0-14: 95.0 ± 0.4%
[3]; day 14, pH 4.6, 7% in water
  Purity(%) from day 0-14: 94.4 ± 0.3%
[3]; day 14, pH 5.0, 7% in water
  Purity(%) from day 0-14: 87.3 ± 0.2%
[3]; day 14, pH 6.0, 7% in water
  Purity(%) from day 0-14: 78.3 ± 0.3%
[3]; day 14, pH 7.0, 7% in water
  Purity(%) from day 0-14: 56.0 ± 0.4%
[3]; day 14, pH 8.0, 7% in water
  Purity(%) from day 0-14: 17.7 ± 0.4%
